Test results reported in patent US12310364B2, “Safened compositions comprising pyridine carboxylate herbicides and cloquintocet” (Corteva Agriscience LLC, priority 2018, dated 2025).
“And” between values parts separate entries of the source, which are not always exact repeats. Equal entries are not always repeated.

Key:
Assay type in all cases: in vivo
[1] = system: Triticum aestivum (spring wheat), TRZAS; assay: Greenhouse postemergence safening trial, visual injury on spring wheat
Description: (§1) Greenhouse Trial Methodology-Evaluation of Postemergence Herbicidal […] in Crops […] When required to ensure good germination and healthy plants, a fungicide treatment and/or other chemical or physical treatment was applied. The plants were grown for 7-36 days (d) in a greenhouse with an approximate 14-hour (h) photoperiod which was maintained at about 23° C. during the day and 22° C. during the night. Nutrients and water were added on a regular basis and supplemental lighting was provided with overhead metal halide 1000-Watt lamps as necessary. The plants were employed for testing when they reached the second or third true leaf stage. Emulsifiable concentrates of each of each pyridine carboxylate herbicide (Compound A or Compound B) were prepared at 100 grams acid equivalent per liter (g ae/L). […] The concentrated stock solutions were further diluted with an aqueous mixture of 1.25% […] or MSO® Concentrate with LECI-TECH® to obtain stock solutions at reduced application rates for each herbicide. Spray solutions of the herbicide combinations (Compound A or Compound B plus safener) were prepared by adding weighed amounts or aliquots of the safener to the stock solutions of Compound A or Compound B to form 12-mL spray solutions in two-way combinations. […] Control plants were sprayed in the same manner with the solvent blank. All herbicide (component a) application rates are given as “g ae/ha” and all safener (component b) application rates are given as “g ai/ha.” The treated plants and control plants were placed in a greenhouse as described above and watered by sub-irrigation to prevent wash-off of the test compounds.

[2] = system: Hordeum vulgare (spring barley), HORVS; assay: Greenhouse postemergence safening trial, visual injury on spring barley
Description: as §1

[3] = system: Brassica napus (winter rape), BRSNW; assay: Greenhouse postemergence trial, visual injury on winter rape
Description: as §1

[4] = system: Salsola kali (Russian thistle), SASKR; assay: Greenhouse postemergence trial, visual injury on Russian thistle
Description: as §1

[5] = system: Polygonum convulvus (wild buckwheat), POLCO; assay: Greenhouse postemergence trial, visual injury on wild buckwheat
Description: (§2) Greenhouse Trial Methodology—Evaluation of Postemergence Herbicidal Safening in Crops
(§3) Seeds of the desired test plant species were planted in a 90:10% v/v (volume/volume) mixture of PRO-MIX® BX (Premier Tech Horticulture, Quakertown, PA, USA) and PROFILE® GREENS GRADE™ (Profile Products LLC, Buffalo Grove, IL, USA) planting mixture, which typically has a pH of 5.2 to 6.2 and an organic matter content of at least 50 percent, in plastic pots with a surface area of 103.2 square centimeters (cm^2). When required to ensure good germination and healthy plants, a fungicide treatment and/or other chemical or physical treatment was applied. The plants were grown for 7-36 days (d) in a greenhouse with an approximate 14-hour (h) photoperiod which was maintained at about 23° C. during the day and 22° C. during the night. Nutrients and water were added on a regular basis and supplemental lighting was provided with overhead metal halide 1000-Watt lamps as necessary. The plants were employed for testing when they reached the second or third true leaf stage.
(§4) Emulsifiable concentrates of each of each pyridine carboxylate herbicide (Compound A or Compound B) were prepared at 100 grams acid equivalent per liter (g ae/L). An aliquot of each emulsifiable concentrate was placed in a 25 mL glass vial and diluted with an aqueous mixture of 1.25% (v/v) ACTIROB® B esterified rapeseed oil (Bayer Crop Science, Research Triangle Park, NC, USA) or MSO® Concentrate with LECI-TECH® methylated soybean oil (Loveland Products, Loveland, CO, USA) to obtain concentrated stock solutions at the highest application rate for each herbicide, based upon a 12 milliliter (mL) application volume at a rate of 187 liters per hectare (L/ha). The concentrated stock solutions were further diluted with an aqueous mixture of 1.25% v/v ACTIROB® B or MSO® Concentrate with LECI-TECH® to obtain stock solutions at reduced application rates for each herbicide. Spray solutions of the herbicide combinations (Compound A or Compound B plus safener) were prepared by adding weighed amounts or aliquots of the safener to the stock solutions of Compound A or Compound B to form 12-mL spray solutions in two-way combinations.
(§5) The spray solutions were applied to the plant material with an overhead Mandel track sprayer equipped with 8002E nozzles calibrated to deliver 187 L/ha over an application area of 0.503 square meters (m^2) at a spray height of 18 inches (43 centimeters (cm)) above the average plant canopy. Control plants were sprayed in the same manner with the solvent blank. All herbicide (component a) application rates are given as “g ae/ha” and all safener (component b) application rates are given as “g ai/ha.”
(§6) The treated plants and control plants were placed in a greenhouse as described above and watered by sub-irrigation to prevent wash-off of the test compounds. After 20-22 d, the condition of the test plants as compared with that of the control plants was determined visually and scored on a scale of 0 to 100 percent where 0 corresponds to no injury and 100 corresponds to complete kill.

[6] = system: nutsedge (CYPES, Cyperus esculentus); assay: Greenhouse postemergence trial, visual injury on nutsedge
Description: as §2, §3, §4, §5, §6

[7] = system: common sunflower (HELAN, Helianthus annuus); assay: Greenhouse postemergence trial, visual injury on common sunflower
Description: as §2, §3, §4, §5, §6

[8] = system: velvetleaf (ABUTH, Abutilon theophrasti); assay: Greenhouse postemergence trial, visual injury on velvetleaf; details: Table 19
Description: as §2, §3
as §4, with “combinations. […]” for “combinations.”
as §6

[9] = system: blackgrass (ALOMY, Alopecurus myosuroides); assay: Greenhouse postemergence trial, visual injury on blackgrass; details: Table 19
Description: as §2, §3
as §4, with “combinations. […]” for “combinations.”
as §6

[10] = system: wild pansy (VIOTR, Viola tricolor); assay: Greenhouse postemergence trial, visual injury on wild pansy; details: Table 19
Description: as §2, §3
as §4, with “combinations. […]” for “combinations.”
as §6

[11] = CQC-mexyl 5 g/ha alone, Table 15
[12] = CQC-mexyl 10 g/ha alone, Table 15
[13] = CQC-mexyl 10 g/ha alone, Table 16
[14] = CQC-mexyl 20 g/ha alone, Table 15
[15] = CQC-mexyl 20 g/ha alone, Table 16
[16] = CQC-mexyl 40 g/ha alone, Table 14
[17] = CQC-mexyl 40 g/ha alone, Table 15
[18] = CQC-mexyl 40 g/ha alone, Table 16
[19] = CQC-mexyl 80 g/ha alone, Table 16
[20] = CQC-mexyl 20 g/ha alone, Table 19
[21] = CQC-mexyl 40 g/ha alone, Table 19
[22] = CQC-mexyl 80 g/ha alone, Table 19
[23] = CQC-mexyl 20 g/ha alone, Table 17
[24] = CQC-mexyl 40 g/ha alone, Table 17
[25] = CQC-mexyl 80 g/ha alone, Table 17
[26] = CQC-mexyl 120 g/ha alone, Table 17
[27] = Compound A 20 g/ha alone, Table 15
[28] = Compound A 40 g/ha alone, Table 14
[29] = Compound A 40 g/ha alone, Table 16
[30] = Compound A 20 g/ha alone, Table 19
[31] = Compound A 40 g/ha alone, Table 17
[32] = Compound A 40 g/ha alone, Table 18

CCCCCC(C)OC(=O)COc1ccc(Cl)c2cccnc12 (stereo not drawn) [CQC-mexyl, cloquintocet-mexyl]
% visual injury, Ob [1, 11]: 0% | % visual injury, Ob [1, 12]: 0% | % visual injury, Ob [1, 13]: 0% | % visual injury, Ob [1, 14]: 0% | % visual injury, Ob [1, 15]: 0% | % visual injury, Ob [1, 16]: 0% | % visual injury, Ob [1, 17]: 0% | % visual injury, Ob [1, 18]: 0% | % visual injury, Ob [1, 19]: 0% | % visual injury, Ob ([1]; safener alone 5 g/ha): 0% | % visual injury, Ob ([1]; safener alone 10 g/ha): 0% | % visual injury, Ob ([1]; safener alone 20 g/ha): 0% | % visual injury, Ob ([1]; safener alone 40 g/ha): 0% | % visual injury, Ob [2, 11]: 0% | % visual injury, Ob [2, 12]: 0% | % visual injury, Ob [2, 13]: 0% | % visual injury, Ob [2, 14]: 0% | % visual injury, Ob [2, 15]: 0% | % visual injury, Ob [2, 16]: 0% | % visual injury, Ob [2, 17]: 0% | % visual injury, Ob [2, 18]: 0% | % visual injury, Ob [2, 19]: 0% | % visual injury, Ob ([2]; safener alone 5 g/ha): 0% | % visual injury, Ob ([2]; safener alone 10 g/ha): 0% | % visual injury, Ob ([2]; safener alone 20 g/ha): 0% | % visual injury, Ob ([2]; safener alone 40 g/ha): 0% | % visual injury, Ob [3, 11]: 0% | % visual injury, Ob [3, 12]: 0% | % visual injury, Ob [3, 14]: 0% | % visual injury, Ob [3, 20]: 0% | % visual injury, Ob [3, 17]: 0% | % visual injury, Ob [3, 21]: 0% | % visual injury, Ob [3, 22]: 0% | % visual injury, Ob ([3]; safener alone 5 g/ha): 0% | % visual injury, Ob ([3]; safener alone 10 g/ha): 0% | % visual injury, Ob ([3]; safener alone 20 g/ha): 0% | % visual injury, Ob ([3]; safener alone 40 g/ha): 0% | % visual injury, Ob ([4]; safener alone 5 g/ha): 0% | % visual injury, Ob ([4]; safener alone 10 g/ha): 0% | % visual injury, Ob ([4]; safener alone 20 g/ha): 0% | % visual injury, Ob ([4]; safener alone 40 g/ha): 0% | % visual injury, Ob [5, 20]: 0% | % visual injury, Ob [5, 21]: 0% | % visual injury, Ob [5, 22]: 0% | % visual injury, Ob ([5]; safener alone 5 g/ha): 0% | % visual injury, Ob ([5]; safener alone 10 g/ha): 0% | % visual injury, Ob ([5]; safener alone 20 g/ha): 0% | % visual injury, Ob ([5]; safener alone 40 g/ha): 0% | % visual injury, Ob [6, 23]: 0% | % visual injury, Ob [6, 20]: 0% | % visual injury, Ob [6, 24]: 0% | % visual injury, Ob [6, 21]: 0% | % visual injury, Ob [6, 25]: 0% | % visual injury, Ob [6, 22]: 0% | % visual injury, Ob [6, 26]: 0% | % visual injury, Ob [7, 23]: 0% | % visual injury, Ob [7, 20]: 0% | % visual injury, Ob [7, 24]: 0% | % visual injury, Ob [7, 21]: 0% | % visual injury, Ob [7, 25]: 0% | % visual injury, Ob [7, 22]: 0% | % visual injury, Ob [7, 26]: 0% | % visual injury, Ob ([8]; CQC-mexyl 20 g/ha alone): 0% | % visual injury, Ob ([8]; CQC-mexyl 40 g/ha alone): 0% | % visual injury, Ob ([8]; CQC-mexyl 80 g/ha alone): 0% | % visual injury, Ob ([9]; CQC-mexyl 20 g/ha alone): 0% | % visual injury, Ob ([9]; CQC-mexyl 40 g/ha alone): 0% | % visual injury, Ob ([9]; CQC-mexyl 80 g/ha alone): 0% | % visual injury, Ob ([10]; CQC-mexyl 20 g/ha alone): 0% | % visual injury, Ob ([10]; CQC-mexyl 40 g/ha alone): 0% | % visual injury, Ob ([10]; CQC-mexyl 80 g/ha alone): 0%

N#CCOC(=O)c1nc(-c2ccc3cc[nH]c3c2F)c(F)c(N)c1Cl [Compound A, cyanomethyl 4-amino-3-chloro-5-fluoro-6-(7-fluoro-1H-indol-6-yl)pyridine-2-carboxylate]
% visual injury, Ob [1, 27]: 15% | % visual injury, Ob [1, 28]: 45% | % visual injury, Ob [1, 29]: 40% | % visual injury, Ob ([1]; herbicide alone 20 g/ha): 15% and 25% | % visual injury, Ob ([1]; herbicide alone 40 g/ha): 45% and 40% and 23% | % visual injury, Ob [2, 27]: 20% | % visual injury, Ob [2, 28]: 20% | % visual injury, Ob [2, 29]: 40% | % visual injury, Ob [3, 27]: 70% | % visual injury, Ob [3, 30]: 85% | % visual injury, Ob ([3]; herbicide alone 20 g/ha): 70% and 95% | % visual injury, Ob ([4]; herbicide alone 20 g/ha): 60% | % visual injury, Ob [5, 30]: 100% | % visual injury, Ob [6, 30]: 30% | % visual injury, Ob [6, 31]: 73% | % visual injury, Ob [6, 32]: 73% | % visual injury, Ob [7, 30]: 95% | % visual injury, Ob [7, 31]: 100% | % visual injury, Ob [7, 32]: 100% | % visual injury, Ob ([8]; Compound A 20 g/ha alone): 95% | % visual injury, Ob ([9]; Compound A 20 g/ha alone): 0% | % visual injury, Ob ([10]; Compound A 20 g/ha alone): 30%
